In patent EP1383793B1 (priority 2000, dated 2001):
One block for each compound: values may come before it. Positions of bridges follow the written chain, without caps; N, C: chain ends. Residues, ends and D or L forms follow the SMILES beside them. No end group written: not given here. *: point of attachment. Biotin = O=C1N[C@H]2[C@H](CS[C@H]2CCCCC(=O)*)N1

Experiments:
[1] = biological target: T1, IGF-1R (Homo sapiens, UniProt P08069); experiment: Phage ELISA, binding of phage-displayed peptides to IGF-1R; conditions: 405 nm
T1 construct: Soluble IGF-1R was obtained from R&D Systems; purchased R&D Systems 391-GR/CF
T1 sequence (P08069 31-736 limits assumed): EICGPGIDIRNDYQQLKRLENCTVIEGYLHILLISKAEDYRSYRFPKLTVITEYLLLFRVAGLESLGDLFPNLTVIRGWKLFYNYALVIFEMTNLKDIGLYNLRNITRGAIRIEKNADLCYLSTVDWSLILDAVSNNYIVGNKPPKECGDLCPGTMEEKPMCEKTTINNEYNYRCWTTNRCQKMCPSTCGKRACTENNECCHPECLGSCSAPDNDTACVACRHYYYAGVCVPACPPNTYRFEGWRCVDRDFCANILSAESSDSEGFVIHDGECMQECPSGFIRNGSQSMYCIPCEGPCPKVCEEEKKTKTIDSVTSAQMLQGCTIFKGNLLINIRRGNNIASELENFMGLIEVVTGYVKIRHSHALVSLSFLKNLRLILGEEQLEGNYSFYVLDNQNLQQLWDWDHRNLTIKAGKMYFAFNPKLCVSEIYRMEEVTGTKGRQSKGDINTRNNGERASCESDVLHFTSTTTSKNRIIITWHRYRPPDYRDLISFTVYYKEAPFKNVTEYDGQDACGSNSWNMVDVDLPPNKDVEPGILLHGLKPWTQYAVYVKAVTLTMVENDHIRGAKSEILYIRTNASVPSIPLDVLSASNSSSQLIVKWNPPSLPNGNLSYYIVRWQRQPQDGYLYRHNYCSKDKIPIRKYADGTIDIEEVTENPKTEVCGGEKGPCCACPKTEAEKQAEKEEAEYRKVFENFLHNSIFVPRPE
T1 sequence (P08069 741-935 limits assumed): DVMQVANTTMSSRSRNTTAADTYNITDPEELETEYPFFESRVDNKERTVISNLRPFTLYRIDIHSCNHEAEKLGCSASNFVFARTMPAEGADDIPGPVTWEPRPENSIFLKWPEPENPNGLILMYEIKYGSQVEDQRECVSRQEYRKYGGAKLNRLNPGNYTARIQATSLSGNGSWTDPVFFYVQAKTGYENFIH
Experimental: Figures 1A-10G. Amino acid sequences comprising the motif of Formulas 1 through 10. […] One hundred microliters of this solution was added to an appropriate number of wells in a 96-well microtiter plate (MaxiSorp plates, Nunc) and incubated overnight at 4°C. […] Subsequent steps are the same for pooled and clonal phage. […] Phage resuspended in MPBS were added to duplicate wells (100 µl/well) and incubated at RT for 1 h. […] Incubation was for 1 h at RT, followed by PBS washes as described. […] Phage ELISA. […] The wells were blocked with 200 µl of MPBS for 1.5 h at RT. Phage were added at 100 µl per well. Peptides were added as noted below and allowed to incubate at RT for 3 h. The plates were washed 3 times with PBST. A solution of 1:3000 diluted HRP:Anti-M13 conjugate at 100 µl per well of was added for 1 h. Following a repeat of the washing, 100 µl of ABTS was added for 15-30 min. […] Phage ELISA. […] Phage were added at 100 µl per well. Peptides were added as noted below and allowed to incubate at RT for 3 h. The plates were washed 3X with PBST. A solution of 1:3000 diluted HRP:Anti-M13 Conjugate at 100 µl per well of was added for 1 h. Following a repeat of the washing, 100 µl of ABTS was added for 15-30 min. The OD405 was measured using a SpectraMax 340 Microplate Spectrophotometer.

[2] = biological target: T2, IR (Homo sapiens, UniProt P06213); experiment: Phage ELISA, binding of phage-displayed peptides to IR
T2 construct: composed of the extracellular domains of both the α and β chains of the natural receptor; made in house; background b13 names human embryonic kidney 293 cells for the Bass et al. construct
T2 sequence (P06213 28-758 limits assumed): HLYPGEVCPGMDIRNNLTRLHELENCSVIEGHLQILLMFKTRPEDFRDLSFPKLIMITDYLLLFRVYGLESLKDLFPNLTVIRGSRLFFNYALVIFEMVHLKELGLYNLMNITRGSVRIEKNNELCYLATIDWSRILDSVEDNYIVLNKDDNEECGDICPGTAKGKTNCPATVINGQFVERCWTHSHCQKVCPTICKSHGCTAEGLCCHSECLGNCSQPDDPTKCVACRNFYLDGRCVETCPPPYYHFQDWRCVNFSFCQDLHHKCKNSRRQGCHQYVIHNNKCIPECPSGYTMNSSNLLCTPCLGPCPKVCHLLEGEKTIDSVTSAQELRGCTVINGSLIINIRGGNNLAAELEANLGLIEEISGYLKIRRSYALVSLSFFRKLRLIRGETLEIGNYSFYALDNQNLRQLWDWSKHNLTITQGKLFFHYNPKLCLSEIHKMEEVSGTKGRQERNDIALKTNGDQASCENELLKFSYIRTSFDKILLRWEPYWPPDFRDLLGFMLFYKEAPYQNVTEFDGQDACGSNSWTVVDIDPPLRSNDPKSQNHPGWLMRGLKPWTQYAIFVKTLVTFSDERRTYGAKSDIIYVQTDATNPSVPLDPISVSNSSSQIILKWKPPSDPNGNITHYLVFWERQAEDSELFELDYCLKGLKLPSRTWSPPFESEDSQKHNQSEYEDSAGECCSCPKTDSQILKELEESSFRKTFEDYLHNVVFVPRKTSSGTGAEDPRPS
T2 sequence (P06213 763-956 limits assumed): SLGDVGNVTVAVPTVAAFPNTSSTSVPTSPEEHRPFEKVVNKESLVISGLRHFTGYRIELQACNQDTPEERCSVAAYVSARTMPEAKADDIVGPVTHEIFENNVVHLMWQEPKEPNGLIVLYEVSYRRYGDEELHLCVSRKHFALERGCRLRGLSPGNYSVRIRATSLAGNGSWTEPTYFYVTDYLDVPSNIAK
Experimental: Amino acid sequences comprising the motif of Formulas 1 through 10. […] Fifty microliters of this solution was added to an appropriate number of wells in a 96-well microtiter plate (MaxiSorp plates, Nunc) and incubated overnight at 4°C. […] To isolate specific binders, each library was panned against a soluble form of the human IR. This IR is composed of the extracellular domains of both the α and β chains of the natural receptor, as well as the constant domain from immunoglobulin Fc, retaining the β-α-α-β structure described above. Because the IR is expressed in a eukaryotic system, disulfide bond formation and glycosylation patterns should mimic the wild-type receptor. The details of this recombinant protein construct are described in Bass et al. (1996). Phage ELISA. […] The wells were blocked with 200 µl of MPBS for 1.5 h at RT. […] Peptides were added as noted below and allowed to incubate at RT for 3 h. The plates were washed 3 times with PBST. A solution of 1:3000 diluted HRP:Anti-M13 conjugate at 100 µl per well of was added for 1 h. Following a repeat of the washing, 100 µl of ABTS was added for 15-30 min. […] Phage ELISA. […] Peptides were added as noted below and allowed to incubate at RT for 3 h. […] A solution of 1:3000 diluted HRP:Anti-M13 Conjugate at 100 µl per well of was added for 1 h. Following a repeat of the washing, 100 µl of ABTS was added for 15-30 min. The OD405 was measured using a SpectraMax 340 Microplate Spectrophotometer.

[3] = tested on: adipocytes; experiment: 3H-glucose uptake into adipocytes (fat cell assay, FFC); type: cell-based, Mouse; conditions: Subjective ranking; basal and sub maximal insulin; includes series A
[4] = biological target: T3, purified insulin receptor (Homo sapiens, UniProt P06213); experiment: Holoenzyme phosphorylation assay (IR autophosphorylation, Western blot); type: biochemical
T3 construct: host or cells: 'Wheat Germ Agglutinin Expression System' (so in the source)
T3 sequence (P06213 28-758 limits assumed): as the sequence (P06213 28-758 limits assumed) above
T3 sequence (P06213 763-1382 limits assumed): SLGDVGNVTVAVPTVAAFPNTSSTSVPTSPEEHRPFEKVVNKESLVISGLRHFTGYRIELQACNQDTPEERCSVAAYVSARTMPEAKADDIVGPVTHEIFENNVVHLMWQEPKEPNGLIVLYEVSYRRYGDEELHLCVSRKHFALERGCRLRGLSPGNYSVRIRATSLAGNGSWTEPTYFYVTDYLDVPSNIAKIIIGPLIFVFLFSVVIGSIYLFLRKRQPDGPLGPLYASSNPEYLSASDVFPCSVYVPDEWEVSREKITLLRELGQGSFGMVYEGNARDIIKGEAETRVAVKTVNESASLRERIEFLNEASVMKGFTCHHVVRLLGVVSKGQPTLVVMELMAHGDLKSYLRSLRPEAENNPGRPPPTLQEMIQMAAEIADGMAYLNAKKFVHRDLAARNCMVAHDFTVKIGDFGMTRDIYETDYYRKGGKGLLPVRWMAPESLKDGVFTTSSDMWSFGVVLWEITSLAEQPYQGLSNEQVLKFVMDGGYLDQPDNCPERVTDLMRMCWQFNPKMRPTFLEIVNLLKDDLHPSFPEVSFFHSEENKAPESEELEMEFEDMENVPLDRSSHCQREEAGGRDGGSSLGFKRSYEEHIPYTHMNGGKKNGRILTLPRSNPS
Experimental: Alternatively, IR autophosphorylation was determined using a holoenzyme phosphorylation assay. […] The reaction was stopped by adding 50 µl of gel loading buffer containing β-mercaptoethanol (Bio-Rad Laboratories, Inc., Hercules, CA). The samples were run on 4-12% SDS-polyacrylamide gels. Western Blot analysis was performed by transferring the proteins onto nitrocellulose membrane. The membrane was blocked in PBS containing 3% milk overnight. The membrane was incubated with anti-phosphotyrosine 4G10 HRP labeled antibody (Upstate Biotechnology) for 2 h. Protein bands were visualized using SuperSignal West Dura Extended Duration Substrate Chemiluminescence Detection System (Pierce Chemical Co.).

[5] = biological target: T4, Insulin receptor (Homo sapiens, UniProt P06213); experiment: BIAcore competition: IR pre-incubated with test substance, injected over immobilised insulin; type: binding; conditions: peptide about 40 µM, IR 450 nM; IR alone 128 RU
T4 construct: composed of the extracellular domains of both the α and β chains of the natural receptor; made in house; background b13 names human embryonic kidney 293 cells for the Bass et al. construct
T4 sequence (P06213 28-758 limits assumed): as the sequence (P06213 28-758 limits assumed) above
T4 sequence (P06213 763-956 limits assumed): as the sequence (P06213 763-956 limits assumed) above
Experimental: Flowcell-1 was used for background binding to correct for any non-specific binding. […] The surface was regenerated with 25 mM NaOH. […] Thus, the system was validated for competition studies. […] The amino acid sequences referred to in the tables are identified in Figures 47 and 48, except the 447 and 2A9 sequences, which are shown below. TABLE 9: BIAcore Results-Fusion Proteins Compete for Binding to IR

[6] = biological target: T2, IR; experiment: Phage ELISA, competition of phage binding by soluble synthetic peptides, IR-coated wells; conditions: Insulin Receptor
Experimental: (§2) Peptide Competition. […] Twenty microliters of the stock synthetic-peptide solution was added to Row A. A series of 20 µl into 100 µl dilutions were performed until Row G. Twenty microliters were discarded from Row G to maintain 100 µl per well. Row H was reserved as no peptide wells. […] The volume was maintained by the addition of 18 µl of the phage solution to Row A.
(§3) Phage ELISA. […] The wells were blocked with 200 µl of 2% (w/v) Carnation non-fat dry milk in PBS for 1.5 h at RT. Phage were added at 100 µl per well. Peptides were added as noted below and allowed to incubate at RT for 3 h. The plates were washed 3X with PBST. A solution of 1:3000 diluted HRP:Anti-M13 Conjugate at 100 µl per well of was added for 1 h. Following a repeat of the washing, 100 µl of ABTS was added for 15-30 min. The OD405 was measured using a SpectraMax 340 Microplate Spectrophotometer.
(§4) Peptide Competition. Peptide Competition Curves were produced during the phage ELISA across rows in triplicate. The stock synthetic peptide solution was added to Column 12 so that the total volume totaled 150 µl (additional phage solution was added when necessary). A serial dilution was made by transferring 50 µl from Column 12 into 100 µl in Column 11, 50 µl from Column 11 into 100 µl in Column 10, and continuing the serial dilution until Column 2. Fifty microliters were discarded from Column 2 to maintain 100 µl per well. Column 1 was reserved as no peptide wells.
(§5) A p53-like peptide that binds to MDM2 was used as a negative control.

[7] = biological target: T1, IGF-1R; experiment: Phage ELISA, competition of phage binding by soluble synthetic peptides, IGF-1R-coated wells; conditions: IGF Receptor, H2 Phage
Experimental: as §2, §3, §4, §5

[8] = biological target: T1, IGF-1R; experiment: Heterogeneous time-resolved fluorescence (Eu) competitive binding assay on IGF-1R
Experimental: The TRFD assay format is well established, sensitive, and quantitative (Tompkins et al., 1993).
(§1) In these assays, soluble IGF-1 receptor is coated on the surface of microtiter wells, blocked by PBS containing milk and BSA, and then incubated with biotinylated peptide or rVab. Unbound bP is then washed away and saEu is added to complex with receptor-bound bP. Upon addition of the acidic enhancement solution, the bound europium is released as free Eu^+3 which rapidly forms a highly fluorescent and stable complex with components of the enhancement solution.
The plates were blocked with PBS containing 2% non-fat milk and 0.05% BSA for 2 h at RT, followed by three PBS washes. […] The plates were then washed 5 times with TTBS (TBS buffer containing Tween-20; Wallac) and tapped dry.

[9] = biological target: T4, Insulin receptor; experiment: Heterogeneous time-resolved fluorescence assay (TRFA) on insulin receptor; type: binding
Experimental: In this assay, saEu forms a ternary complex with bP and IR (i.e., IR:bP:saEu complex). The TRFD assay format is well established, sensitive, and quantitative (Tompkins et al., 1993). The assay can use a single-chain antibody or a biotinylated peptide.
as §1, with “IR” for “IGF-1 receptor”, “a solution of 0.5% BSA and 2% non-fat” for “PBS containing”, “in PBS,” for “and BSA,”, “Eu^3+” for “Eu^+3”, “solution. The IR:bP bound saEu is then converted into its highly fluorescent state and detected by a detector such as Wallac Victor II (EG&G Wallac, Inc.)” for “solution.”
• a. Heterogeneous Time-Resolved Fluorescence Assay. […] The plates were blocked with TBS containing 2% milk and 0.5% BSA for 1 h at RT followed by three TBS washes. […] After TBS wash, europium-labeled streptavidin at 1 µg/ml in assay buffer (100 mM Tris-HCl, pH 7.8; 150 mM NaCl; 0.5% BSA; 0.05% bovine Ig; 0.05% NaN3; 0.01% Tween-20) was added to the plates and incubated for 1 h. To test binding of rVab antibodies to IR, Eu-labeled rVab antibodies in assay buffer were added to the plates and incubated for 2 h to overnight. After incubation with Eu-labeled streptavidin (for peptide test) or europium-labeled rVabs, the plates were washed 5 times with Tris-buffered saline (pH 7.5) containing 0.1 % Tween-20 (TTBS) and tapped dry. Sixty microliters of EG&G Wallac enhancement solution (100 mM acetone-potassium hydrogen pthalate, pH 3.2; […] 2-naphtyltrifluoroacetate; […] tri(n-octyl)-phosphine oxide; 0.1 % Triton X-100) was added into each well, and the plates were placed onto a shaker for 20 min at RT. […] Homogeneous Time-Resolved Fluorescence Assay. […] For library screening, 20 µM of small organic molecules in 2 % DMSO are included in the mixture.

[10] = Precipitate in diluted peptide stock prior to adding to the fat cell assay; solubility under assay conditions; type: physicochemical; conditions: diluted stock prior to adding to assay
[11] = biological target: human IGF-1 receptor (HIGF-1R) (Homo sapiens, UniProt P08069); experiment: 125I-IGF-1 competition binding assay on solubilised purified receptor
human IGF-1 receptor (HIGF-1R), sequence (P08069 31-736 limits assumed): as the sequence (P08069 31-736 limits assumed) above
human IGF-1 receptor (HIGF-1R), sequence (P08069 741-1367 limits assumed): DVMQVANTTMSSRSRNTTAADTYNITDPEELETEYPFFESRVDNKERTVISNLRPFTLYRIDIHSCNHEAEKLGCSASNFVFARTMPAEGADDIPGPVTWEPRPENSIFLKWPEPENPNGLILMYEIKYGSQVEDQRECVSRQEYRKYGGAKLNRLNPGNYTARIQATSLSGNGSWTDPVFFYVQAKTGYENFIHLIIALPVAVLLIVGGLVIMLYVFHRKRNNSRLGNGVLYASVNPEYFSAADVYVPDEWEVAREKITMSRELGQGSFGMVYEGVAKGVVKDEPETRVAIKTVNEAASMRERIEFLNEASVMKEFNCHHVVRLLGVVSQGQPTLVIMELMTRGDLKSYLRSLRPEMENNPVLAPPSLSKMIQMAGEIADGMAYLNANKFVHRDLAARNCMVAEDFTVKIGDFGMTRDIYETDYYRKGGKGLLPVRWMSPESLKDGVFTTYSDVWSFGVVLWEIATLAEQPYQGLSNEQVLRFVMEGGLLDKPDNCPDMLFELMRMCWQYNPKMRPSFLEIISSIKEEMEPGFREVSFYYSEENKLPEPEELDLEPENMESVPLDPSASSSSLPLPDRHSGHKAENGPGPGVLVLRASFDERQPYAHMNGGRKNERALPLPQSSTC

[12] = tested on: FDCP2 cells (NIH) which express IGF-1R; experiment: FDCP2 cell proliferation (WST-1), agonism; type: cell-based; conditions: not against IGF-1 R- cells
Experimental: Agonistic and antagonistic activities of the IGF-1-specific peptides were tested in FDCP2 cells (NIH) which express IGF-1R. […] Agonism activity assays were performed in a total volume of 100 µl in 96 well plates (flat bottom).
Proliferation assays were performed using WST-1 reagent. The WST-1 tetrazolium salt (slightly red) is cleaved to formazan (dark red) by the succinate-tetrazolium reductase system, which is active only in viable cells. An increase in the number of cells results in an increase in the overall activity of the dehydrogenase which results in a higher absorbance at 450 nm. […] Proliferation was measured by absorbance at 450 nm.

[13] = biological target: T1, IGF-1R; experiment: Competitive phage ELISA with IGF-1 on IGF-1R; type: binding
Experimental: For IC50 determinations in a competitive ELISA, microtiter plates were coated with IGF-1R and blocked as described. Phage were prepared as described. Prior to addition of phage to plates, the peptide or recombinant variable antibody or fragment ("rVab"), or an appropriate control, was diluted in PBS and added to duplicate wells (100 µl/well). After incubation for 1 h at RT, the prepared phage were added to each well (100 µl/well) without removing the peptide or rVab solution. After incubation for 1 h at RT, the wells were washed and the color developed as described above.
The clones were next analyzed for binding to the receptor's active site (Figures 20A and 20B).
For IC50 determinations, microtiter plates were coated with IGF-1R and blocked as described. Phage and soluble rVabs were prepared as described above. […] After incubation for 1 h at RT, the wells were washed and the color was developed as described above.

Absorbance Values sIGF-1R [1]: 0.21
Absorbance Values IR ([2]; 405 nm): 1.61
Autophosph. Blot [4]: 0
Result (RUs) [5]: 41.8 RUs
Compound: CC[C@H](C)[C@H](NC(=O)[C@H](CCC(=O)O)NC(=O)[C@@H](N)CCCCN)C(=O)N[C@@H](CCC(=O)O)C(=O)N[C@@H](C)C(=O)N[C@@H](CCC(=O)O)C(=O)N[C@@H](Cc1c[nH]c2ccccc12)C(=O)NCC(=O)N[C@@H](CCCNC(=N)N)C(=O)N[C@H](C(=O)N[C@@H](CCCNC(=N)N)C(=O)N[C@H]1CSSC[C@@H](C(=O)N[C@H](C(=O)NCC(=O)NCC(=O)N[C@@H](CCCCN)C(=O)N[C@@H](CCCCNC(=O)CCCC[C@@H]2SC[C@@H]3NC(=O)N[C@@H]32)C(N)=O)C(C)C)NC(=O)[C@H](CCCNC(=N)N)NC(=O)CNC(=O)[C@H](Cc2ccc(O)cc2)NC(=O)[C@H](C(C)C)NC(=O)[C@H](CC(C)C)NC1=O)C(C)C [Clone 20A4] (H-KEIEAEWGRVRCLVYGRCVGGKK(Biotin)-NH2; disulfide 12-18 (inferred); N-terminus assumed)
Resp. [3]: -1

binding to IR when expressed as phage [2]: do not have detectable binding
n (Hill plot) ([6]; 20D3 Phage): 0.83
n (Hill plot) ([6]; H2 Phage): 0.46
n (Hill plot) [7]: 0.96
binding of biotinylated peptide to IGF-1 R [8]: nM range
binding of biotinylated peptide to IR [9]: micromolar range
Comments (precipitation) [10]: Precipitates
affinity for HIGF-1R [11]: high affinity
Ratio ([11]; Kd HIGF1R / Kd HIR): 0.1
Compound: CC(C)[C@H](NC(=O)[C@H](Cc1ccccc1)NC(=O)[C@H](Cc1c[nH]c2ccccc12)NC(=O)[C@H](CC(=O)O)NC(=O)[C@H](Cc1ccc(O)cc1)NC(=O)[C@H](Cc1ccccc1)NC(=O)[C@H](CC(N)=O)NC(=O)[C@H](C)NC(=O)[C@H](C)NC(=O)[C@H](CC(=O)O)NC(=O)CNC(=O)[C@H](CS)NC(=O)[C@@H]1CCCN1C(=O)[C@H](CCCNC(=N)N)NC(=O)[C@H](C)NC(=O)[C@H](Cc1c[nH]c2ccccc12)NC(=O)[C@H](CS)NC(=O)[C@H](CC(=O)O)NC(=O)[C@H](CCCCN)NC(=O)[C@H](Cc1ccc(O)cc1)NC(=O)[C@@H](N)CC(=O)O)C(=O)N[C@@H](CCC(N)=O)C(=O)N[C@@H](CCC(N)=O)C(=O)N[C@@H](C)C(=O)N[C@@H](CO)C(=O)N[C@@H](CCCCN)C(=O)N[C@@H](CCCCNC(=O)CCCC[C@@H]1SC[C@@H]2NC(=O)N[C@@H]21)C(N)=O [Clone C1]
Resp. [3]: 0

Compound: LCQRLGVGWPGWLSGWCA [Clone H5]
activity toward IGF-1 R+ cells in cell culture [12]: agonistic activity

binding to IR when expressed as phage [2]: do not have detectable binding
inhibition of phage binding to immobilized IGF-1R by IGF-1 [13]: could be inhibited with IGF-1
competition with binding of 12H10 to IR [9]: do not compete
Compound: WNTVDPFYHKLSELLREKK [Clone B6]
